Source: patent publication US20200216416A1, “QUINOLINE COMPOUNDS AS INHIBITORS OF TAM AND MET KINASES” (Array BioPharma Inc., priority 2019, published 2020)

Legend:
[1] = target: T1, His-tagged recombinant human AXL cytoplasmic domain (Homo sapiens, UniProt P30530); experiment: AXL Enzyme Assay (LanthaScreen Eu Kinase Binding); conditions: averaged IC50; 60-minute incubation at 22° C.; TR-FRET
T1 construct: His-tagged recombinant human AXL cytoplasmic domain
T1 sequence (P30530 473-894 limits assumed): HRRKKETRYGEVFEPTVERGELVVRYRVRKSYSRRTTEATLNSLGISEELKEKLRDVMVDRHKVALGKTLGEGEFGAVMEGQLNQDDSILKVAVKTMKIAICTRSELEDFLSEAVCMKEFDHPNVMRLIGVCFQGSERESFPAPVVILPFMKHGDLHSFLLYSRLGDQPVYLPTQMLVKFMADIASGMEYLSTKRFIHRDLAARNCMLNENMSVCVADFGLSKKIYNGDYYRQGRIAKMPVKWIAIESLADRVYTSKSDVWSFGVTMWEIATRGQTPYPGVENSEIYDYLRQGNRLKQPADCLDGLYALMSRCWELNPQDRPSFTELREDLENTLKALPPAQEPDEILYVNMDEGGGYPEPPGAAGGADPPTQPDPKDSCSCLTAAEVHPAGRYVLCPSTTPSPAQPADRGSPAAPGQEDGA
Method: (§1) Compounds disclosed herein were screened for their ability to inhibit AXL kinase using Invitrogen's LanthaScreen™Eu Kinase Binding technology. His-tagged recombinant human AXL cytoplasmic domain was incubated with 20 nM Alexa-Fluor® Tracer 236 (PR9078A), 2 nM biotinylated anti-His (Cat. No. M4408), and 2 nM europium-labeled Streptavidin (Cat. No. PV5899) along with test compound in a buffer consisting of 25 mM HEPES, pH 7.4, 10 mM MgCl2, 0.01% Triton X-100, and 2% DMSO. Compounds were typically prepared in a threefold serial dilution in DMSO and added to the assay to give the appropriate final concentration. After a 60-minute incubation at 22° C., the reaction was measured using a PerkinElmer EnVision multimode plate reader via TR-FRET dual wavelength detection, and the percent of control (POC) was calculated using a ratiometric emission factor. […] The POC values are fit to a 4 parameter logistic curve and the IC50 value is point where the curve crosses 50 POC.

[2] = target: T2, GST-tagged recombinant human TYRO3 kinase domain (Homo sapiens, UniProt Q06418); experiment: TYRO3 Enzyme Assay (LanthaScreen Eu Kinase Binding); conditions: averaged IC50; TYRO3 5 nM; 60-minute incubation at 22° C.; TR-FRET
T2 construct: GST-tagged recombinant human TYRO3 kinase domain; purchased Carna PR7480A
T2 sequence (Q06418 518-790 limits assumed): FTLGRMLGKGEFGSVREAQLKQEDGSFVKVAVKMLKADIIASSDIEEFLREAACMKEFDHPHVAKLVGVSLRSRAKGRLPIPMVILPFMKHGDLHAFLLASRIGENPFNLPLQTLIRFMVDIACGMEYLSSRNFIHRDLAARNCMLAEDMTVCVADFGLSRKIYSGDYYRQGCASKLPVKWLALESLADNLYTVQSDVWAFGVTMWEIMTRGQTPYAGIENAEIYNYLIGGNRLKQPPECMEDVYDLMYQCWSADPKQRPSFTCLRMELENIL
Method: Compounds disclosed herein were screened for their ability to inhibit TYRO3 kinase using Invitrogen's LanthaScreenTM Eu Kinase Binding technology. GST-tagged recombinant human TYRO3 kinase domain from Carna (5 nM; Cat. No. P[…]) was incubated with 20 nM Alexa-Fluor® Tracer 236 (P[…]) and 2 nM Europium-anti-GST (Cat. No. A15116) along with test compound in a buffer consisting of 25 mM HEPES, pH 7.4, 10 mM MgCl2, 0.01% Triton X-100, and 2% DMSO. Compounds are typically prepared in a threefold serial dilution in DMSO and added to the assay to give the appropriate final concentration. After a 60-minute incubation at 22° C., the reaction was measured using a PerkinElmer EnVision multimode plate reader via TR-FRET dual wavelength detection, and the percent of control (POC) calculated using a ratiometric emission factor. […] The POC values were fit to a 4 parameter logistic curve and the IC50 value is point where the curve crosses 50 POC.

[3] = target: T3, His-tagged recombinant human MER cytoplasmic domain (Homo sapiens, UniProt Q12866); experiment: MER Enzyme Assay (LanthaScreen Eu Kinase Binding); conditions: averaged IC50; MER 5 nM; 60-minute incubation at 22° C.; TR-FRET
T3 construct: His-tagged recombinant human MER cytoplasmic domain
T3 sequence (Q12866 527-999 limits assumed): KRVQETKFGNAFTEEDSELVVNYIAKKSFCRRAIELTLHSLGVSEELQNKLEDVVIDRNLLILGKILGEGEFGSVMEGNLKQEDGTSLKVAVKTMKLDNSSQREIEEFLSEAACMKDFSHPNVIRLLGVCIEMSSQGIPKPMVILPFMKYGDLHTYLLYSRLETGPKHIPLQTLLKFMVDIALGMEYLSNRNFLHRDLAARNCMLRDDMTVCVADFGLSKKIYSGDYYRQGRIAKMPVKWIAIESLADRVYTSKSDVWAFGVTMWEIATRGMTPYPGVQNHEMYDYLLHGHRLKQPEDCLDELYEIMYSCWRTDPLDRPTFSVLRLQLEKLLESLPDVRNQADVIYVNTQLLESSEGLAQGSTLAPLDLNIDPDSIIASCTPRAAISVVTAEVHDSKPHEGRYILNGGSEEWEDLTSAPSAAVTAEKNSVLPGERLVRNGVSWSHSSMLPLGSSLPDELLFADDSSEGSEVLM
Method: as §1, with “human MER” for “human AXL”, “domain (5 nM)” for “domain”, “mM MgCl 2,” for “mM MgCl2,”

- IC50 [1]: 6 nM
- IC50 [2]: 19 nM
- IC50 [3]: 19 nM
SMILES: COc1ccc2nccc(Oc3ccc(NC(=O)c4cn(C(C)C)cc(-c5ccc(F)cc5)c4=O)nc3)c2c1 [Example 40, 5-(4-fluorophenyl)-1-isopropyl-N-(5-((6-methoxyquinolin-4-yl)oxy)pyridin-2-yl)-4-oxo-1,4-dihydropyridine-3-carboxamide]
